Source: patent US4141986A, “Antibiotics 890A2 and 890A5” (Merck & Co., Inc., priority 1977, dated 1979)

Tests used:
[1] = Stability during desalting on Sephadex G-10; type: physicochemical; details: pooled fractions at pH 4.1; A308/A260 ratio of 0.76
Method: Fractions 112 through 130 containing 890A2, are concentrated under reduced pressure to 5.5 ml. and the concentrate is applied to a column (2.15 × 70 cm.) of Sephadex G-10, and eluted with deionized water at a flow rate of 1 ml. per minute. Fractions of 2.85 ml. each are collected. The bioactivity as determined by assay against Salmonella gallinarum MB1287 appears in fractions 60 through 98. Fractions 78 through 90 have the highest A308 /A260 ratios, and these are pooled for lyophilization. The pH of the pooled fractions is 4.1, and is adjusted to 7.8 by addition of 8 μl of 1M ammonia.

[2] = tested on: Difco penicillinase and lactamase(s) produced by a cephalosporin C-resistant strain of Vibrio percolans (MB-2566); assay: Inactivation by penicillinase and lactamase(s), from the antibiotic spectra; type: cell-based; details: judged from the spectra of Table III
Method: The test to determine the antibiotic spectrum profile of antibiotic 890A2 is carried out by saturating 1/4 inch diameter paper discs in a solution of antibiotic 890A2 in 5% methanol at a concentration of 5 μg./ml.; air drying the saturated paper discs and placing them on the surface of 100 × 15 mm. petri plates containing 5 ml. of seeded nutrient agar plus 0.2% yeast extract.
The test to determine the antibiotic spectrum profile of antibiotic 890A5 is carried out by application of a 0.015 ml. droplet of a 33 μg./ml. aqueous solution of the antibiotic on the surface of a 100 × 15 mm. petri plate containing 5 ml. of seeded nutrient agar plus 0.2% yeast extract.
The spectra of antibiotic 890A2 and 890A5 are quite similar, except for the resistance of 890A5 to inactivation by Difco penicillinase and by lactamase(s) produced by a cephalosporin C-resistant strain of Vibrio percolans (MB-2566).

| Compound | stability during Sephadex G-10 desalting [1] | inactivation by Difco penicillinase and by lactamase(s) of Vibrio percolans MB-2566 [2] |
| --- | --- | --- |
| CC(=O)NC=CSC1=C(C(=O)O)N2C(=O)C(C(C)O)C2C1 (centres unmarked) [Antibiotic 890A2] | substantial degradation | – |
| CC(=O)NC=CSC1=C(C(=O)O)N2C(=O)C(C(C)O)C2C1 (centres unmarked) [Antibiotic 890A5] | – | resistance |
